Measured values taken from patent US7189754B2, “Pyrrolidine ester derivatives with oxytocin modulating activity” (Applied Research Systems ARS Holding NV, priority 2001, dated 2007).

Legend:
[1] = target: T1, human Oxytocin (hOT) receptor (Homo sapiens, UniProt P30559); test: In vitro competition binding assay on hOT receptor with scintillation proximity assay ([125I]-OVTA); conditions: HEK293EBNA membranes expressing hOT receptor, 0.2 nM [125I]-OVTA, SPA; read-out: Binding affinity human OT-R IC50
T1 construct: expressed in transfected cells; host or cells: HEK293EBNA
T1 sequence (P30559 1-389): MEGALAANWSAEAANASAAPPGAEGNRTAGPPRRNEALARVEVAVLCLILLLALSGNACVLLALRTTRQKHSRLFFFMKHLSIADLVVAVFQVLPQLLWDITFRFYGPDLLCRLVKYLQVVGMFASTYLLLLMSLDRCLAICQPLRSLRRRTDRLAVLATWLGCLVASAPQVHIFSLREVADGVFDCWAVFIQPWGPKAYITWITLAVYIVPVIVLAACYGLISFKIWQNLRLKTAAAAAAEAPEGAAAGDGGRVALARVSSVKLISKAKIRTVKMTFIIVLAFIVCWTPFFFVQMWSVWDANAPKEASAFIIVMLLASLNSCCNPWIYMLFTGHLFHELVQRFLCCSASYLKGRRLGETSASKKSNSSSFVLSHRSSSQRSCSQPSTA
Protocol: a) In Vitro Competition Binding Assay on hOT Receptor with Scintillation Proximity Assay (see Cook, N. D. et al. Pharmaceutical Manufacturing International 1992; p.49–53)
This assay allows to determine the affinity of the test compounds for the human Oxytocin (hOT) receptor. Membranes from HEK293EBNA (cells expressing the hOT receptor) were suspended in buffer containing 50 mM Tris-HCl, pH 7.4, 5 mM MgCl2 and 0.1% BSA (w/v). The membranes (2–4 μg) were mixed with 0.1 mg SPA bead coated with wheat-germ aglutinin (WGA-PVT-Polyethylene Imine beads from Amersham) and 0.2 nM of the radiolabelled [^125I]-OVTA (OVTA being Ornithin Vasoactive, an analogue of OT for competitive binding experiments). Non-specific binding was determined in the presence of 1 μM Oxytocin. The total assay volume was 100 μl. The plates (Corning® NBS plate) were incubated at room temperature for 30 min and counted on a Mibrobeta® plate scintillation counter. Competitive binding was performed in presence of compounds of formula (I) at the following concentrations: 30 μM, 10 μM, 1 μM, 300 nM, 100 nM, 10 nM, 1 nM, 100 pM, 10 pM. The competitive binding data were analysed using the iterative, nonlinear, curve-fitting program, “Prism” (GraphPad Software, Inc).
The ability of the pyrrolidine derivatives of formula (I) to inhibit the binding of ^125I-OVTA to the OT-receptor was assessed using the above described in vitro biological assay. Representative values for some example compounds are given in Table 1, where the binding affinity of the compounds is expressed by the IC50 (μM) which is the concentration upon which 50% inhibition of OT-R is achieved. From these values, it can be derived that said test compounds according to formula (I) do show a significant binding to the oxytocin receptor.

[2] = target: T2, hOT receptor (Homo sapiens, UniProt P30559); test: Functional assay No. 1: inhibition of oxytocin mediated Ca2+-mobilization by FLIPR in HEK293EBNA cells; type: cell-based; conditions: HEK293EBNA cells expressing hOT receptor, OT 40 nM, fluo-4, FLIPR; read-out: Inhibition of Ca2+ mobiliation, hOT-R IC50
T2 construct: expressed in transfected cells; host or cells: HEK293EBNA
T2 sequence (P30559 1-389): T1 sequence (P30559 1-389)
Description: b) Functional Assay No. 1: Inhibition of Oxytocin Mediated Ca^2+-mobilization by FLIPR® (Fluorimetric Imaging Plate Reader)
The action of OT on the OT-receptor triggers a complex cascade of events in the cell which leads to an increase in the intra-cytoplasmic Ca^2+ concentration. This increase in Ca^2+ concentration results from both calcium release from the sarcoplasmic reticulum (calcium stores) into the cytoplasm and from calcium influx from the extracellular space through Ca^2+ channels. […]
FLIPR® is a fluorimetric imaging device using a laser (Argon-ion laser) for simultaneous illumination and reading (cooled CCD camera) of each well of a 96-well-plate, thus enabling rapid measurements on a large number of samples. […]
The relative fluorescence of Fluo-4 (λex=488 nm, […]) is then measured by the FLIPR in presence or absence of compounds of formula (I). The fluorescence of the marker being sensitive to the amount of Ca^2+, the Ca^2+ movements can be detected. Then, the ability of compounds of formula (I) to antagonize the oxytocin-induced intracellular Ca^2+-mobilization mediated by the oxytocin receptor may be determined.
The activities of the pyrrolidine derivatives according to formula (I) were assessed using the above described in vitro biological assay. […]

IC50 [1] [nM]	IC50 [2] [nM]	SMILES
36	15	CO/N=C1\C[C@@H](C(=O)OC)N(C(=O)c2ccc(-c3ccccc3C)cc2)C1 [Methyl (2S,4E)-4-(methoxyimino)-1-[(2′-methyl[1,1′-biphenyl]-4-yl)carbonyl]-2-pyrrolidinecarboxylate]
12	15	CO/N=C1/C[C@@H](C(=O)OC)N(C(=O)c2ccc(-c3ccccc3C)cc2)C1 [Methyl (2S,4Z)-4-(methoxyimino)-1-[(2′-methyl[1,1′-biphenyl]-4-yl)carbonyl]-2-pyrrolidinecarboxylate]
